Measured values reported in patent US9796711B2, “Substituted pyrazolo[3,4-b]pyridin-6-carboxylic acids and method of use” (AbbVie S.àr.l., priority 2015, dated 2017).
pEC50: −log10 of the molar value.

Tests used:
ΔF508-CFTR [1] = target: T1, ΔF508-CFTR (Homo sapiens, UniProt P13569, DEL508-508); assay: CFTR cell surface levels using HRP-tagged ΔF508-CFTR expressing CFBE cells, intrinsic corrector capacity; assay type: cell-based; conditions: HRP-tagged ΔF508-CFTR expressing CFBE cells, intrinsic corrector capacity (no co-corrector), 33° C., 20 hours; for pEC50: read-out: EC50
T1 construct: host or cells: CFBE41o-, doxycycline-inducible
T1 sequence (P13569 with tags, fused parts or gaps DEL508-508): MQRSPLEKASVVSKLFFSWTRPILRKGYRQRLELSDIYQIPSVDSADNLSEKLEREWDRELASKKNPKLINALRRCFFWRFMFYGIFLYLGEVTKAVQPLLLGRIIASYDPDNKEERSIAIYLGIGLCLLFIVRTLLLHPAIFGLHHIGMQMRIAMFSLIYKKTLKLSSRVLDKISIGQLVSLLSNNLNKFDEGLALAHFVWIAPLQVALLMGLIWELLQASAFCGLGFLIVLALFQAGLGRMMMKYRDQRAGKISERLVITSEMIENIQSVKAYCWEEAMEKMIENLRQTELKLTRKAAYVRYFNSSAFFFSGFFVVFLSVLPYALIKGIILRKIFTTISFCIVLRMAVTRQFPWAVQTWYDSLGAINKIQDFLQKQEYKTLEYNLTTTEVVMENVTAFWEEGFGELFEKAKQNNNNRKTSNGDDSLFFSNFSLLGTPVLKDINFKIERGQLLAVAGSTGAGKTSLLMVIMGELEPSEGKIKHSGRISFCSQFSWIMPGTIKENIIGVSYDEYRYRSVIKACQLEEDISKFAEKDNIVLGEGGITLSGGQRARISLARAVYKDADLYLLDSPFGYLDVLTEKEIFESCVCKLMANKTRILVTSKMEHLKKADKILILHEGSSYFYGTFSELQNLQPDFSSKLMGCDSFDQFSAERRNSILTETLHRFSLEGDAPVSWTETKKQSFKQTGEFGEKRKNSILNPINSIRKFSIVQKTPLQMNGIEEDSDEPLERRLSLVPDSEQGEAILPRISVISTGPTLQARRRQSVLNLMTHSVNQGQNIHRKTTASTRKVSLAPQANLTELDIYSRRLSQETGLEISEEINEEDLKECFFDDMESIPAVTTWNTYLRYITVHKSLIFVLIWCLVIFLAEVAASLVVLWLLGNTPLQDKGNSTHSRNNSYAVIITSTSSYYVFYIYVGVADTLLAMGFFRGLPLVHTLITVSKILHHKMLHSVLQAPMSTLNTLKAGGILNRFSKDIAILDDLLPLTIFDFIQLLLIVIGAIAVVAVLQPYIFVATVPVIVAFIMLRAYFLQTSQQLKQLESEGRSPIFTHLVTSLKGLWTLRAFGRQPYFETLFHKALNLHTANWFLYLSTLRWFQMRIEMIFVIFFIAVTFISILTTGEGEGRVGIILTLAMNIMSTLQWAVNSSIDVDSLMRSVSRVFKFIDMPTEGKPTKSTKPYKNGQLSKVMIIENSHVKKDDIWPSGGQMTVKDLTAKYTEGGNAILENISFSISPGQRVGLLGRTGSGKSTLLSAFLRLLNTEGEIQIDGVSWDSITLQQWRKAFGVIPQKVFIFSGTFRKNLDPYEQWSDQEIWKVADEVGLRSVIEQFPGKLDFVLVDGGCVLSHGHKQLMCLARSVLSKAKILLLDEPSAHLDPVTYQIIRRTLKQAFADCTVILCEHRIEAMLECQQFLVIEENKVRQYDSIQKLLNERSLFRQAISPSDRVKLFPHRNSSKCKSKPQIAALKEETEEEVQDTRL
Outline: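 Here the cells express ΔF508-CFTR with horseradish peroxidase inserted in extracellular loop 4, so only rescued channel at the surface gives luminescent signal. Compounds act on their own, 20 h at the reduced temperature of 33 °C; values are percent activity relative to DMSO and a 3 μM corrector.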

ΔF508-CFTR [2] = target: T1, ΔF508-CFTR; assay: CFTR cell surface levels using HRP-tagged ΔF508-CFTR expressing CFBE cells, in the presence of a co-corrector; assay type: cell-based; conditions: HRP-tagged ΔF508-CFTR expressing CFBE cells, in the presence of 3 μM co-corrector; for pEC50: read-out: EC50
Outline: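 Cells were seeded with 0.5 μg/mL doxycycline and held 68 h at 37 °C. Test compounds plus 3 μM co-corrector (final 0.1% DMSO) were then added for 20 h at 33 °C. Washed cells received HRP substrate, and luminescence was normalized between DMSO and 3 μM co-corrector controls.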

Compound | % Activation (ΔF508-CFTR [1]) | pEC50 (ΔF508-CFTR [1]) | % Activation (ΔF508-CFTR [2]) | pEC50 (ΔF508-CFTR [2])
CN1C(=O)CN(CC2CCN(c3cc(C(=O)O)nc4c3c(C3CCC3)nn4-c3ccccc3)CC2)CC12COC2 [compound 845, 3-cyclobutyl-4-{4-[(5-methyl-6-oxo-2-oxa-5,8-diazaspiro[3.5]nonan-8-yl)methyl]piperidin-1-yl}-1-phenyl-1H-pyrazolo[3,4-b]pyridine-6-carboxylic acid] | 273.7% | 5.83 | 499.6% | 5.96
O=C(O)c1cc(N2CCC(N3CCC(F)C3)CC2)c2c(C3CCC3)nn(-c3ccc(F)cc3)c2n1 (centres unmarked) [compound 846, 3-cyclobutyl-1-(4-fluorophenyl)-4-[4-(3-fluoropyrrolidin-1-yl)piperidin-1-yl]-1H-pyrazolo[3,4-b]pyridine-6-carboxylic acid] | 317.9% | 6.06 | 495.1% | 6.01
N#CC1CN(C2CCN(c3cc(C(=O)O)nc4c3c(C3CCC3)nn4-c3ccc(F)cc3)CC2)C1 [compound 847, 4-[4-(3-cyanoazetidin-1-yl)piperidin-1-yl]-3-cyclobutyl-1-(4-fluorophenyl)-1H-pyrazolo[3,4-b]pyridine-6-carboxylic acid] | 279.1% | 6.27 | 503.8% | 6.54
COC1CCN(C2CCN(c3cc(C(=O)O)nc4c3c(C3CCC3)nn4-c3ccc(F)cc3)CC2)C1 (centres unmarked) [compound 848, 3-cyclobutyl-1-(4-fluorophenyl)-4-[4-(3-methoxypyrrolidin-1-yl)piperidin-1-yl]-1H-pyrazolo[3,4-b]pyridine-6-carboxylic acid] | 249% | 5.92 | 405.2% | 6.37
O=C(O)c1cc(N2CCC(N3CCC(F)(F)CC3)CC2)c2c(C3CCC3)nn(-c3ccc(F)cc3)c2n1 [compound 850, 3-cyclobutyl-4-(4,4-difluoro[1,4′-bipiperidin]-1′-yl)-1-(4-fluorophenyl)-1H-pyrazolo[3,4-b]pyridine-6-carboxylic acid] | 234.4% | 7.13 | 615.6% | 7.05
N#CC1CN(C2CCN(c3cc(C(=O)O)nc4c3c(C3CCC3)nn4-c3ccc(F)cc3)CC2)CCO1 (centres unmarked) [compound 851, 4-[4-(2-cyanomorpholin-4-yl)piperidin-1-yl]-3-cyclobutyl-1-(4-fluorophenyl)-1H-pyrazolo[3,4-b]pyridine-6-carboxylic acid] | 342.9% | 6.61 | 559.8% | 6.91
O=C(O)c1cc(N2CCC(N3CC4CC3CO4)CC2)c2c(C3CCC3)nn(-c3ccc(F)cc3)c2n1 (centres unmarked) [compound 852, 3-cyclobutyl-1-(4-fluorophenyl)-4-[4-(2-oxa-5-azabicyclo[2.2.1]heptan-5-yl)piperidin-1-yl]-1H-pyrazolo[3,4-b]pyridine-6-carboxylic acid] | 120.6% | 5.77 | 391.4% | 5.48
COCC1CN(C2CCN(c3cc(C(=O)O)nc4c3c(C3CCC3)nn4-c3ccc(F)cc3)CC2)CCO1 (centres unmarked) [compound 853, 3-cyclobutyl-1-(4-fluorophenyl)-4-{4-[2-(methoxymethyl)morpholin-4-yl]piperidin-1-yl}-1H-pyrazolo[3,4-b]pyridine-6-carboxylic acid] | 290.9% | 6.58 | 509.5% | 6.75
CN(C1CCOCC1)C1CCN(c2cc(C(=O)O)nc3c2c(C2CCC2)nn3-c2ccc(F)cc2)CC1 [compound 854, 3-cyclobutyl-1-(4-fluorophenyl)-4-{4-[methyl(oxan-4-yl)amino]piperidin-1-yl}-1H-pyrazolo[3,4-b]pyridine-6-carboxylic acid] | 131.1% | 5.68 | 380.7% | 5.48
CC(C)Oc1cc(-n2nc(C3CCC3)c3c(N4CCC(N5CCOCC5)CC4)cc(C(=O)O)nc32)ccn1 [compound 855, 3-cyclobutyl-4-[4-(morpholin-4-yl)piperidin-1-yl]-1-{2-[(propan-2-yl)oxy]pyridin-4-yl}-1H-pyrazolo[3,4-b]pyridine-6-carboxylic acid] | 304.2% | 6.70 | 490.9% | 7.06
O=C(O)c1cc(N2CCC(N3CCOCC3)CC2)c2c(C3CCC3)nn(-c3ccnc(OCc4ccccc4)c3)c2n1 [compound 856, 1-[2-(benzyloxy)pyridin-4-yl]-3-cyclobutyl-4-[4-(morpholin-4-yl)piperidin-1-yl]-1H-pyrazolo[3,4-b]pyridine-6-carboxylic acid] | 230.7% | 6.61 | 416.9% | 7.05
O=C(O)c1cc(CN2CCOCC2)c2c(C3CCC3)nn(-c3ccc(F)cc3)c2n1 [compound 857, 3-cyclobutyl-1-(4-fluorophenyl)-4-[(morpholin-4-yl)methyl]-1H-pyrazolo[3,4-b]pyridine-6-carboxylic acid] | 60.01% | 5.48 | 232.2% | 5.61
CN1CCN(Cc2cc(C(=O)O)nc3c2c(C2CCC2)nn3-c2ccc(F)cc2)CC1 [compound 858, 3-cyclobutyl-1-(4-fluorophenyl)-4-[(4-methylpiperazin-1-yl)methyl]-1H-pyrazolo[3,4-b]pyridine-6-carboxylic acid] | 29.24% |  | 168.6% | 5.50
COCC1CCN(Cc2cc(C(=O)O)nc3c2c(C2CCC2)nn3-c2ccc(F)cc2)CC1 [compound 859, 3-cyclobutyl-1-(4-fluorophenyl)-4-{[4-(methoxymethyl)piperidin-1-yl]methyl}-1H-pyrazolo[3,4-b]pyridine-6-carboxylic acid] | 89.07% | 5.65 | 291.4% | 5.59
N#CC1CCN(C2CCN(c3cc(C(=O)O)nc4c3c(C3CCC3)nn4-c3ccc(F)cc3)CC2)CC1 [compound 860, 4-(4-cyano[1,4′-bipiperidin]-1′-yl)-3-cyclobutyl-1-(4-fluorophenyl)-1H-pyrazolo[3,4-b]pyridine-6-carboxylic acid] | 383% | 6.29 | 576.25% | 6.38
CC(C)Oc1nn(C2CCCCC2)c2nc(C(=O)O)cc(-c3ccc(C(=O)N4CCC(N(C)C)CC4)cc3)c12 [compound 861, 1-cyclohexyl-4-{4-[4-(dimethylamino)piperidine-1-carbonyl]phenyl}-3-[(propan-2-yl)oxy]-1H-pyrazolo[3,4-b]pyridine-6-carboxylic acid] | 31.08% |  | 155.4% | 
O=C(O)c1cc(N2CCC3(CC2)CC(N2CCCC2)CO3)c2c(C3CCC3)nn(-c3ccc(F)cc3)c2n1 (centres unmarked) [compound 862, 3-cyclobutyl-1-(4-fluorophenyl)-4-[3-(pyrrolidin-1-yl)-1-oxa-8-azaspiro[4.5]decan-8-yl]-1H-pyrazolo[3,4-b]pyridine-6-carboxylic acid] | 186.5% | 6.20 | 359.6% | 6.20
